Experimental data as given in patent US9187477B2, “Azabenzimidazole derivatives” (Boehringer Ingelheim International GmbH, priority 2013, dated 2015).

What was measured:
[1] = target: AMPK complex 1 (containing alpha1beta1gamma1) (Homo sapiens (Human), UniProt Q13131+Q9Y478); assay: in vitro AMPK activation assay (ADP-Glo Kinase Assay); format: biochemical; settings: AMPK alpha1beta1gamma1, ATP 30 μM, peptide 1 μM, 60 min, room temperature
Text: Activated AMPK complex 1 (containing alpha1beta1gamma1) was obtained from baculovirus expression system. The gene encoding AMPK alpha1 was cloned into the pACG2T vector (BD Biosciences) to obtain a N-terminal Glutathion S transferase (GST)-fusion protein. The genes encoding AMPK beta1 and gamma1 were cloned into the p2Bac dual multiple cloning site vector (Invitrogen) with beta1 under the control of the p10 promoter and gamma1 under the control of the PH promoter. The transfer vectors containing AMPK were co-transfected individually with AcPNV BacMagic-3 DNA (EMD Millipore) in Sf9 cells and the recombinant baculoviruses were harvested after 5 days, followed by 3 rounds of amplification of the virus stock in Sf9 cells. AMPK (alpha1beta1gamma1) was expressed in High Five 5 cells by co-infection of recombinant alpha1 virus and recombinant beta1/gamma1 virus for 72 h at 27° C. Cells were harvested by centrifugation and lysed by 3 freeze/thaw cycles in PBS with 10% glycerol and protease inhibitor cocktail (Roche). After centrifugation AMPK a1b1g1 in the supernatant was captured by immobilized glutathione (GE Healthcare), impurities were washed away with PBS and AMPK alpha1beta1gamma1 was eluted with PBS containing 20 mM reduced gluthathione. The protein buffer was then exchanged to PBS with 10% glycerol and protein concentration was determined by UV absorbance.
The white 384-well Optiplates (cat. no. 6007299) were purchased from PerkinElmer. The V9101 ADP-Glo Kinase Assay and ultra pure ATP (V915A) was purchased from Promega. The substrate for AMPK (NH2-HMRSAMSGLHLVKRR_CONH2) was purchased from Upstate (12-355).
Compounds were tested in either serial dilutions or single dose concentrations. The serial compound dilutions were prepared in 100% DMSO automatically. The final DMSO concentration in the assay was 0.1%.
The Compound Stock Solutions were 10 mM in 100% DMSO. The compounds were solubilised at room temperature.
In the 384-well plates 1.25 ul of test compound in assay buffer was mixed with 1.25 ul of AMPK and 1.25 μl of the peptide (final concentration of 1 μM) and 1.25 μl of ATP (final concentration of 30 μM), both dissolved in assay buffer. This step was followed by an incubation time of 60 min. Then 5 μl of ADP Glo Reagent was added. This was followed by 40 min of incubation. Then 10 μl of Kinase Detection Reagent was admixed. The plates were sealed and after an incubation period of 30 min, the luminescence signal was measured in an Envision reader. All incubation steps were accomplished at room temperature.
Each assay microtiter plate contained wells with vehicle controls instead of compound (0.1% DMSO in water) as reference for the low signal (100% CTL, low signal), and wells with serial dilutions of AMP (final 30 μM) as reference for high signals.
The luminescence signal generated was proportional to the ADP concentration produced and was correlated with AMPK activity. The analysis of the data was performed by the calculation of the percentage of ATP consumption of AMPK in the presence of the test compound compared to the consumption of ATP in the presence of AMPK without compound. (RLU(sample)/RLU(low control))*100[RLU=relative luminescence units]
An activator of the AMPK enzyme gave values above 100% CTL.
EC50 values based on dose response curves are calculated with the XIFIT software using the 4 Parameter Logistic Model or Sigmoidal Dose-Response Model.

[2] = Metabolic stability: metabolic degradation with pooled human liver microsomes; format: in vitro ADME; settings: for c (control) (metabolic stability), remaining test compound after NADPH independent incubation: incubation without NADPH, after 2 hours, human liver microsomes; for t1/2 INVITRO: pooled human liver microsomes 1 mg/ml, 37° C., test compound 1 μM, NADPH 1 mM
Procedure: The metabolic degradation of the test compound is assayed at 37° C. with pooled human liver microsomes. The final incubation volume of 100 μl per time point contains TRIS buffer pH 7.6 at room temperature (0.1 M), magnesium chloride (5 mM), microsomal protein (1 mg/ml) and the test compound at a final concentration of 1 μM.
Following a short preincubation period at 37° C., the reactions were initiated by addition of beta-nicotinamide adenine dinucleotide phosphate, reduced form (NADPH, 1 mM) and terminated by transferring an aliquot into solvent after different time points.
Additionally, the NADPH-independent degradation was monitored in incubations without NADPH, terminated at 2 hour time point. The [%] remaining test compound after NADPH independent incubation is reflected by the parameter c (control) (metabolic stability). A c (control) (metabolic stability) value around 100% excludes cofactor independent activities (e.g. from esterases).
The quenched incubations are pelleted by centrifugation (10000 g, 5 min).
An aliquot of the supernatant is assayed by LC-MS/MS for the amount of parent compound. The half-life (t1/2 INVITRO) is determined by the slope of the semilogarithmic plot of the concentration-time profile.

Chain of AMPK complex 1 (containing alpha1beta1gamma1) (Q13131 whole entry, the tested form may be a part): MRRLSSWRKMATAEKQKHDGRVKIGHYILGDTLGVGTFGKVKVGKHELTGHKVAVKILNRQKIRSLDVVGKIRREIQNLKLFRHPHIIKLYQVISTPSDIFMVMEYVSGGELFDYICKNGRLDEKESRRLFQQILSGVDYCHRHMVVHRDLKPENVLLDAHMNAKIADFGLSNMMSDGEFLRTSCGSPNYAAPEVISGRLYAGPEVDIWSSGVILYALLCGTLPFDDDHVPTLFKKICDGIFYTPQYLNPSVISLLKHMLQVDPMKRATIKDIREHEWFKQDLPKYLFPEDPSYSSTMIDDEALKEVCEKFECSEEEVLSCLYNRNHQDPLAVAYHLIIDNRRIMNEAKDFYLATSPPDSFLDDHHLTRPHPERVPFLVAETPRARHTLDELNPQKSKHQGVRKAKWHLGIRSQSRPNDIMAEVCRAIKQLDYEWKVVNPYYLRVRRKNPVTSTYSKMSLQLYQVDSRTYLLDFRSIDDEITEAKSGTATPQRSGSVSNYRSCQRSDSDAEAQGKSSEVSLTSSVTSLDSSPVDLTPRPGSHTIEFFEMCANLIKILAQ
Chain of AMPK complex 1 (containing alpha1beta1gamma1) (Q9Y478 whole entry, the tested form may be a part): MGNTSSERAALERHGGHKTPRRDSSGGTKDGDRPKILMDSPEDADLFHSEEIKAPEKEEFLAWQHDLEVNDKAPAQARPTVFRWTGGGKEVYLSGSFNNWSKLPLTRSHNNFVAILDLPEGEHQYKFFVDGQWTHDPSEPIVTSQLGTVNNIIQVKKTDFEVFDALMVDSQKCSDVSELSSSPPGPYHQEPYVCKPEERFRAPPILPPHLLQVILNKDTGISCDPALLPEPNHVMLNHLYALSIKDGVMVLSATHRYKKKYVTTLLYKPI
Chain of AMPK complex 1 (containing alpha1beta1gamma1) (P54619 whole entry partner, the tested form may be a part): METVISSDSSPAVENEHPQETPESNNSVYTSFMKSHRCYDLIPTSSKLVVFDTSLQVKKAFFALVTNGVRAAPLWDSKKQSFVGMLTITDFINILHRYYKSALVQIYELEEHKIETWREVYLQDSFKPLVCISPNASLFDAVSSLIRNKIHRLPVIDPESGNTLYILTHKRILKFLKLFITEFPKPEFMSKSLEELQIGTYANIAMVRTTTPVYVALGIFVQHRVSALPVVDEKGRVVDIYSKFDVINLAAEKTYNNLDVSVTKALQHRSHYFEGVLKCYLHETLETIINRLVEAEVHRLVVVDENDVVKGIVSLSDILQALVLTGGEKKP

c (control) (metabolic stability), remaining test compound after NADPH independent incubation [2] [%]	t1/2 INVITRO [2] [h]	Structure (SMILES)	EC50 [1] [µM]
98	>2.17	O=C(O[C@H]1CC[C@H](c2ccc(-c3nc4[nH]c(O[C@@H]5CO[C@H]6[C@@H]5OC[C@H]6O)nc4cc3Cl)cc2)CC1)N1CCOCC1 [Example 6, (trans)-4-(4-(6-Chloro-2-((3R,3aR,6R,6aR)-6-hydroxyhexahydrofuro[3,2-b]furan-3-yloxy)-3H-imidazo[4,5-b]pyridin-5-yl)phenyl)cyclohexyl morpholine-4-carboxylate]	0.006
117	0.317	O=C(N[C@H]1CC[C@@H](c2ccc(-c3nc4[nH]c(O[C@@H]5CO[C@H]6[C@@H]5OC[C@H]6O)nc4cc3Cl)cc2)CC1)OC1CCCC1 [Example 3, Cyclopentyl (cis)-4-(4-(6-chloro-2-((3R,3aR,6R,6aR)-6-hydroxyhexahydrofuro[3,2-b]furan-3-yloxy)-3H-imidazo[4,5-b]pyridin-5-yl)phenyl)cyclohexylcarbamate]	0.108
100	>2.17	CCOC(=O)NC1CCN(c2ccc(-c3nc4[nH]c(O[C@@H]5CO[C@H]6[C@@H]5OC[C@H]6O)nc4cc3Cl)cc2)CC1 [Example 1, Ethyl 1-(4-(6-chloro-2-((3R,3aR,6R,6aR)-6-hydroxyhexahydrofuro[3,2-b]furan-3-yloxy)-3H-imidazo[4,5-b]pyridin-5-yl)phenyl)piperidin-4-ylcarbamate]	0.0012
106	1.13	O=C(N[C@H]1CC[C@@H](c2ccc(-c3nc4[nH]c(O[C@@H]5CO[C@H]6[C@@H]5OC[C@H]6O)nc4cc3Cl)cc2)CC1)OC1CCOCC1 [Example 5, Tetrahydro-2H-pyran-4-yl (cis)-4-(4-(6-chloro-2-((3R,3aR,6R,6aR)-6-hydroxyhexahydrofuro[3,2-b]furan-3-yloxy)-3H-imidazo[4,5-b]pyridin-5-yl)phenyl)cyclohexylcarbamate]	0.119
103	>2.17	CC(C)OC(=O)N[C@H]1CC[C@@H](c2ccc(-c3nc4[nH]c(O[C@@H]5CO[C@H]6[C@@H]5OC[C@H]6O)nc4cc3Cl)cc2)CC1 [Example 4, Isopropyl (cis)-4-(4-(6-chloro-2-((3R,3aR,6R,6aR)-6-hydroxyhexahydrofuro[3,2-b]furan-3-yloxy)-3H-imidazo[4,5-b]pyridin-5-yl)phenyl)cyclohexylcarbamate]	0.012
109	1.85	CN(C)C(=O)OC1CCN(c2ccc(-c3nc4[nH]c(O[C@@H]5CO[C@H]6[C@@H]5OC[C@H]6O)nc4cc3Cl)cc2)CC1 [Example 2, 1-(4-(6-Chloro-2-((3R,3aR,6R,6aR)-6-hydroxyhexahydrofuro[3,2-b]furan-3-yloxy)-3H-imidazo[4,5-b]pyridin-5-yl)phenyl)piperidin-4-yl dimethylcarbamate]	0.032
105	>2.17	CCNC(=O)O[C@H]1CC[C@@H](c2ccc(-c3nc4[nH]c(O[C@@H]5CO[C@H]6[C@@H]5OC[C@H]6O)nc4cc3Cl)cc2)CC1 [Example 10, (cis)-4-(4-(6-Chloro-2-((3R,3aR,6R,6aR)-6-hydroxyhexahydrofuro[3,2-b]furan-3-yloxy)-3H-imidazo[4,5-b]pyridin-5-yl)phenyl)cyclohexyl ethylcarbamate]	0.026
102	>2.17	CC(C)NC(=O)O[C@H]1CC[C@H](c2ccc(-c3nc4[nH]c(O[C@@H]5CO[C@H]6[C@@H]5OC[C@H]6O)nc4cc3Cl)cc2)CC1 [Example 8, (trans)-4-(4-(6-Chloro-2-((3R,3aR,6R,6aR)-6-hydroxyhexahydrofuro[3,2-b]furan-3-yloxy)-3H-imidazo[4,5-b]pyridin-5-yl)phenyl)cyclohexyl isopropylcarbamate]	0.339

Continued, compound first:

Structure (SMILES)	c (control) (metabolic stability), remaining test compound after NADPH independent incubation [2] [%]	t1/2 INVITRO [2] [h]	EC50 [1] [µM]
O=C(O[C@H]1CC[C@@H](c2ccc(-c3nc4[nH]c(O[C@@H]5CO[C@H]6[C@@H]5OC[C@H]6O)nc4cc3Cl)cc2)CC1)N1CCCC1 [Example 13, (cis)-4-(4-(6-Chloro-2-((3R,3aR,6R,6aR)-6-hydroxyhexahydrofuro[3,2-b]furan-3-yloxy)-3H-imidazo[4,5-b]pyridin-5-yl)phenyl)cyclohexyl pyrrolidine-1-carboxylate]			2.04
O=C(O[C@H]1CC[C@@H](c2ccc(-c3nc4[nH]c(O[C@@H]5CO[C@H]6[C@@H]5OC[C@H]6O)nc4cc3Cl)cc2)CC1)N1CCOCC1 [Example 12, (cis)-4-(4-(6-Chloro-2-((3R,3aR,6R,6aR)-6-hydroxyhexahydrofuro[3,2-b]furan-3-yloxy)-3H-imidazo[4,5-b]pyridin-5-yl)phenyl)cyclohexyl morpholine-4-carboxylate]			1.31
CCNC(=O)O[C@H]1CC[C@H](c2ccc(-c3nc4[nH]c(O[C@@H]5CO[C@H]6[C@@H]5OC[C@H]6O)nc4cc3Cl)cc2)CC1 [Example 7, (trans)-4-(4-(6-Chloro-2-((3R,3aR,6R,6aR)-6-hydroxyhexahydrofuro[3,2-b]furan-3-yloxy)-3H-imidazo[4,5-b]pyridin-5-yl)phenyl)cyclohexyl ethylcarbamate]			0.468
O=C(OC1CCN(c2ccc(-c3nc4[nH]c(O[C@@H]5CO[C@H]6[C@@H]5OC[C@H]6O)nc4cc3Cl)cc2)CC1)N1CCOCC1 [Example 15, 1-(4-(6-Chloro-2-((3R,3aR,6R,6aR)-6-hydroxyhexahydrofuro[3,2-b]furan-3-yloxy)-3H-imidazo[4,5-b]pyridin-5-yl)phenyl)piperidin-4-yl morpholine-4-carboxylate]			0.133
CC(C)NC(=O)OC1CCN(c2ccc(-c3nc4[nH]c(O[C@@H]5CO[C@H]6[C@@H]5OC[C@H]6O)nc4cc3Cl)cc2)CC1 [Example 14, 1-(4-(6-Chloro-2-((3R,3aR,6R,6aR)-6-hydroxyhexahydrofuro[3,2-b]furan-3-yloxy)-3H-imidazo[4,5-b]pyridin-5-yl)phenyl)piperidin-4-yl isopropylcarbamate]			0.578
CC(C)OC(=O)NC1CCN(c2ccc(-c3nc4[nH]c(O[C@@H]5CO[C@H]6[C@@H]5OC[C@H]6O)nc4cc3Cl)cc2)CC1 [Example 16, Isopropyl 1-(4-(6-chloro-2-((3R,3aR,6R,6aR)-6-hydroxyhexahydrofuro[3,2-b]furan-3-yloxy)-3H-imidazo[4,5-b]pyridin-5-yl)phenyl)piperidin-4-ylcarbamate]			0.29
